Assay results taken from patent US8779002B2, “Methods for treating a variety of diseases and conditions, and compounds useful therefor” (Salk Institute for Biological Studies, priority 2007, dated 2014).
Like-named read-outs stand apart in the source and are kept apart here.

Experiments:
[1] = test system: primary cortical neurons; experiment: Trophic factor withdrawal (TFW) assay; type: cell-based, rat; conditions: Rattus norvegicus, Primary cortical neuron
Method: FIG. 1A illustrates the results of a trophic factor withdrawal assay. Primary cortical neurons are prepared from 18-day-old rat embryos, and cultured at low cell density 1×10^6/35 mm dish, in serum containing medium, with different compounds Viability is then assayed 2 days later using a fluorescent live-dead assay (Molecular Probes).
Primary cortical neurons can be prepared from 18-day-old embryos of Sprague-Dawley rats as described (Liu & Schubert, J. Neurochem., 1997, 69:2285-2293 and J. Neurochem., 1998, 71:2322-2329). Briefly, the cerebral cortex is dissected out under an anatomical microscope and is freed of meninges and blood vessels. The cortex is cut into small pieces and is then dissociated by trypsin digestion and passed through a pipette tip. Dissociated neurons are suspended in various media and plated on polylysine-coated 35 mm tissue culture dishes (e.g., 1×10^6 cells/dish). Several different culture conditions can be used as known in the art. Invention compounds can be added to cell culture dishes. Cell survival can be measured 1-2 days after compound administration.
A serum-containing medium can be used which includes a minimal essential medium (Sigma) containing 30 mM glucose, 2 mM glutamine, 1 mM pyruvate, penicillin (100 U/ml), streptomycin (100 μg/ml), and 10% fetal calf serum. At a plating density of 1×10^6 cells/dish, most neurons die after one week of culture in this medium. If plated at a density of 2×10^6 cells/dish, then most neurons survive. The cell density-dependent neuronal survival in this system is most likely dependent on the neurotrophic factors secreted by the neurons, not by the glia. The results are the same when glial proliferation is inhibited by cytosine arabinoside.
The structure-activity relationships of compounds according to the present invention can be determined by measuring trophic factor withdrawal in […] primary cortical neurons. As shown in FIG. 1A-FIG. 1D, compounds are added to low density primary cultures of E18 rat cortical neurons at the time of plating, and cell survival is determined two days later by a variety of methods.

[2] = test system: Cortical Nerve; experiment: In vitro ischemia, cortical nerve; type: cell-based; parameters: key: + = positive result or enzyme activation
[3] = test system: Retinal Ganglion Cells; experiment: In vitro ischemia, retinal ganglion cells; type: cell-based; parameters: key: + = positive result or enzyme activation
[4] = test system: CaM Kinase II alpha; experiment: CaM Kinase II activation; type: cell-based; parameters: key: + = positive result or enzyme activation
Method: Invention compounds have the ability to activate CaM Kinase II alpha, a key enzyme involved in memory formation.
To evaluate the ability of a test compound to activate CaM Kinase II alpha, HT22 hippocampal neurons or one week old cortical neurons from embryonic 18 day rats can be prepared according to published procedures (e.g., Soucek et al., Neuron 39:43-56 (2003) and Li et al., Neuron 19:453-463 (1997)). Thus, for example, suitable cells can be treated with 1-2 μM of an exemplary invention compound for a suitable amount of time (e.g., 15, 30, 60 or 120 minutes).
Cells are then lysed and applied to a suitable gel for separation (e.g., P81 phosphocellulose paper, polyacrylamide gel containing SDS, and the like). CaMKII activity can then be assayed using an antibody that recognizes phosphothreonine from both the alpha and beta chains of CaM Kinase II. Invention compounds promote an increase in CaMKII activity of 10% or greater.

[5] = test system: Wistar rats; experiment: Novel object recognition task in rats; type: in vivo, rat; conditions: for Recognition index, Mean: Wistar rats, n=8
Method: FIG. 6 illustrates the effect of galantamine, compounds CNB-001, J147, SK186 and SKI 87 on object recognition task in Wistar rats. The data represent mean±SEM. *p<0.05 compared with the vehicle control.
This model is based on the greater spontaneous exploration of a novel object, compared with a familiar object, shown by rodents (see Ennaceur and Delacour in Behav. Brain Res. 31:47 (1988)). Male Wister rats are assessed for cognitive ability in a test apparatus comprising an open-field arena placed in a sound-attenuated room under dimmed lighting. Images of the open-field are captured by digital camera, and viewed on a monitor in an adjoining room. Each rat is subjected to the procedure separately and care is taken to remove any olfactory/taste cues by cleaning the arena and test objects with alcohol between trials and rats.
Adult male Wistar rats were employed in all rat studies. Animals were placed in the experimental rooms at postnatal day 80 and assigned unique identification numbers (tail marked). Pairs were housed in polycarbonate cages with filter tops and acclimated for 3 days prior to commencing any studies. Animals were maintained in a 12 hour light/dark cycle with room temperature maintained at 22±2° C. with a relative humidity maintained approximately 50%. Food and water were provided ad libitum.
All animals were examined, handled, and weighed for a further two days prior to initiation of the study to assure adequate health and suitability and to minimize non-specific stress associated with manipulation. Each animal was randomly assigned across the treatment groups and balanced by cage numbers. The novel object recognition experiment was performed during the animal's light cycle phase. Drug treatments were balanced across days and animals were only used once
The following compounds were used for this study—Reference compound (Galantamine; 3 mg/kg) was dissolved in 0.9% saline and administered i.p. 1 hour pre-test at a dose volume of 1 ml/kg, and all test compounds were handled in solution, and were kept at −80° C. until use. All compounds were administered orally 60 min prior to training at a volume of 1 ml/kg body weight.
Following a 5-minute habituation period, each rat was placed into the test arena in the presence of two identical objects (plastic shapes). Each rat was placed facing the same direction at the same position in the arena, and the time spent actively exploring the objects during a 5-minute test period (T1) was recorded. The rat was returned to its home cage between tests. After 24 hours, each rat was again placed in the test arena for 5 minutes (T2) in the presence of one of the familiar objects and a novel object, and the time spent exploring both objects was again recorded. The presentation order and position of the objects (left/right) was randomized between rats to prevent bias from order or place preference. A preference index for each object, the ratio of the time spent exploring either the familiar object or the novel object over the total time spent exploring both objects (during retention session T2) was used to measure cognitive function.
Data were analyzed by a one-way analysis of variance (ANOVA) followed by post-hoc comparisons with Fisher Tests when appropriate. An effect was considered significant if p<0.05. Data in the following tables are presented as the mean and standard error to the mean.

[6] = Cell Culture (Table 2), read-out: Trophic Factor Withdrawal
[7] = 5 mg/kg orally 60 min prior to training
[8] = 10 mg/kg orally 60 min prior to training
[9] = 25 mg/kg orally 60 min prior to training

| SMILES | EC50 [1, 6] | EC50 ([1]; Trophic factor withdrawal assay, read-out: TFW EC50) | In Vitro Ischemia, Cortical Nerve [2] | In Vitro Ischemia, Retinal Ganglion Cells [3] | CaMKinase II [4] | Recognition index, Mean [5, 7] | Recognition index, Mean [5, 8] | Recognition index, Mean [5, 9] | Fisher's PLSD for Recognition index, Mean Diff. (*vehicle, treatment) ([5]; vehicle versus 5 mg/kg oral) | Fisher's PLSD for Recognition index, Mean Diff. (*vehicle, treatment) ([5]; vehicle versus 10 mg/kg oral) | Fisher's PLSD for Recognition index, Mean Diff. (*vehicle, treatment) ([5]; vehicle versus 25 mg/kg oral) | Effect on recognition index ([5]; 10 mg/kg, versus vehicle, p<0.05) |
| --- | --- | --- | --- | --- | --- | --- | --- | --- | --- | --- | --- | --- |
| COc1cccc(/C=N/N(C(=O)C(F)(F)F)c2ccc(C)cc2C)c1 [Compound J147] | 10 nM | 50 nM | + | + | + | 63.053 | 54.213 | 51.372 | −11.130 | −2.291 | .550 | – |
| COc1cc(/C=C/c2cc(/C=C/c3ccc(O)c(OC)c3)n(-c3ccccc3)n2)ccc1O [CNB-001] | 500 nM | – | + | + | + | 63.663 | 77.964 | 45.226 | −11.741 | −26.042 | 6.697 | significantly increased |
